In assay [1] the test system is Staphylococcus aureus S13E. In kind it is cell-based. As for the experimental part: (§1) The MIC's were determined using a standard broth micro-dilution assay.
The test system of assay [2] is Staphylococcus aureus SA1199B. In kind it is cell-based. As for the experimental part: as §1
Assay [3] has as its system Entercoccus faecium 180-1. The experiment in a line: broth micro-dilution MIC. In kind it is cell-based. As for the experimental part:
as §1

In a further assay the test system is Entercoccus faecium 276. The experiment in a line: broth micro-dilution MIC. The assay is classed as cell-based. As for the experimental part: as §1
For assay [4], the system named is Staphylococcus aureus 446. The experiment in a line: broth micro-dilution MIC. The assay is classed as cell-based. As for the experimental part:
as §1

For assay [5], the system named is Staphylococcus aureus 489. The experiment in a line: broth micro-dilution MIC. In kind it is cell-based. As for the experimental part: as §1
The test system of assay [6] is Staphylococcus aureus SA1199A. The experiment in a line: broth micro-dilution MIC. In kind it is cell-based. As for the experimental part: as §1
In assay [7] the test system is Staphylococcus aureus SA1199. The experiment in a line: broth micro-dilution MIC. The assay is classed as cell-based. As for the experimental part: as §1
The test system of assay [8] is Staphylococcus aureus X400. The experiment in a line: broth micro-dilution MIC. In kind it is cell-based. As for the experimental part:
as §1

Assay [9] has as its system Staphylococcus aureus X778. The experiment in a line: broth micro-dilution MIC. The assay is classed as cell-based. As for the experimental part:
as §1

For assay [10], the system named is Streptococcus pyogenes C203. The experiment in a line: broth micro-dilution MIC. The assay is classed as cell-based. As for the experimental part: as §1
Another assay deals with Entercoccus faecium 2041. The experiment in a line: broth micro-dilution MIC. The assay is classed as cell-based. The following applies: Entercoccus faecium 2041. As for the experimental part:
(§2) The formula I compounds have in vitro and in vivo activity against Gram-positive pathogenic bacteria. The MIC's were determined using a standard broth micro-dilution assay.

The test system of assay [11] is Enterococcus gallinarum 245. The experiment in a line: broth micro-dilution MIC. The assay is classed as cell-based. To be noted: Enterococcus gallinarum 245. As for the experimental part: as §2
The test system of assay [12] is Staphylococcus epidermidis 270. The experiment in a line: broth micro-dilution MIC. The assay is classed as cell-based. As for the experimental part: as §2
In assay [13] the test system is Staphylococcus haemolyticus 105. The experiment in a line: broth micro-dilution MIC. In kind it is cell-based. As for the experimental part:
as §2

For assay [14], the system named is Staphylococcus haemolyticus 415. The experiment in a line: broth micro-dilution MIC. The assay is classed as cell-based. As for the experimental part:
as §2

Assay [15] relates to Streptococcus pneumoniae P1. The experiment in a line: broth micro-dilution MIC. In kind it is cell-based. As for the experimental part:
as §2

The test system of assay [16] is vancomycin-resistant enterococci. The experiment in a line: broth micro-dilution, mean geometric MIC. The following applies: enterococci, 24-hour incubation. The assay is classed as cell-based, Enterococcus faecium and Enterococcus faecalis.
Assay [17] concerns vancomycin-susceptible enterococci. The experiment in a line: broth micro-dilution, mean geometric MIC. In kind it is cell-based, Enterococcus faecium and Enterococcus faecalis. To be noted: enterococci, 24-hour incubation.
For assay [18], the system named is Staphylococcus aureus 447. The experiment in a line: broth micro-dilution MIC. In kind it is cell-based. As for the experimental part:
as §1

In the next assay the test system is Entercoccus faecium 180. The experiment in a line: broth micro-dilution MIC. The assay is classed as cell-based. To be noted: Entercoccus faecium 180. As for the experimental part:
as §2

Molecules are shown by their SMILES. Converted amounts (≈) assume the structure as drawn.

With `CNC(CC(C)C)C(=O)NC1C(=O)NC(CC(N)=O)C(=O)NC2C(=O)NC3C(=O)NC(C(=O)NC(C(=O)O)c4cc(O)cc(O)c4-c4cc3ccc4O)C(OC3CC(C)(N)C(O)C(C)O3)c3ccc(c(Cl)c3)Oc3cc2cc(c3OC2OC(CO)C(O)C(O)C2OC2CC(C)(NCc3ccc(Oc4ccc(OC)cc4)cc3)C(O)C(C)O2)Oc2ccc(cc2Cl)C1O` (centres unmarked) [Compound 98], the MIC is 0.5 µg/mL (≈ 0.277 µM) in assay [1]; 1 µg/mL (≈ 0.554 µM) in assay [2]; not above 0.06 µg/mL in [3]; 0.125 µg/mL (≈ 0.0693 µM) with Entercoccus faecium 276; 0.5 µg/mL (≈ 0.277 µM) in assay [4]; not above 0.06 µg/mL in assay [5]. In addition, the MIC in assay [6] was not above 0.06 µg/mL; in [7], 0.5 µg/mL (≈ 0.277 µM); in [8], not above 0.06 µg/mL; in assay [9], not above 0.06 µg/mL; in assay [10], not above 0.06 µg/mL; in the assay on Entercoccus faecium 2041, not above 0.06 µg/mL. The MIC in assay [11] was 1 µg/mL (≈ 0.554 µM); in [12], not above 0.06 µg/mL; in assay [13], 1 µg/mL (≈ 0.554 µM); in [14] it was 1 µg/mL (≈ 0.554 µM); in [15] it was not above 0.06 µg/mL. In addition, the “mean geometric MIC, Vancomycin Resistant Strains” value in assay [16] worked out at 2.4 µg/mL. Besides, the “mean geometric MIC, Vancomycin Sensitive Strains” value in [17] stood at 0.095 µg/mL.
For the compound `CNC(CC(C)C)C(=O)NC1C(=O)NC(CC(N)=O)C(=O)NC2C(=O)NC3C(=O)NC(C(=O)NC(C(=O)O)c4cc(O)cc(O)c4-c4cc3ccc4O)C(OC3CC(C)(N)C(O)C(C)O3)c3ccc(c(Cl)c3)Oc3cc2cc(c3OC2OC(CO)C(O)C(O)C2OC2CC(C)(NCc3ccc(-c4ccccn4)cc3)C(O)C(C)O2)Oc2ccc(cc2Cl)C1O` (centres unmarked) [Compound 137], the MIC in [1] is not above 0.06 µg/mL; in assay [2], not above 0.06 µg/mL; in [3], not above 0.06 µg/mL; with Entercoccus faecium 276 it was not above 0.06 µg/mL; in assay [18] it was 4 µg/mL (≈ 2.27 µM); in assay [5] it was not above 0.06 µg/mL. The MIC was not above 0.06 µg/mL in assay [6]; not above 0.06 µg/mL in [7]; not above 0.06 µg/mL in assay [8]; not above 0.06 µg/mL in assay [9]; not above 0.06 µg/mL in assay [10]; 0.125 µg/mL (≈ 0.071 µM) in the assay on Entercoccus faecium 180. The MIC in the assay with Entercoccus faecium 2041 was not above 0.06 µg/mL; in assay [11], 8 µg/mL (≈ 4.55 µM); in assay [12], 0.5 µg/mL (≈ 0.284 µM); in [13], 2 µg/mL (≈ 1.14 µM); in assay [14], 8 µg/mL (≈ 4.55 µM); in assay [15], not above 0.06 µg/mL. The “mean geometric MIC, Vancomycin Resistant Strains” value in assay [16] amounted to 6.7 µg/mL. The “mean geometric MIC, Vancomycin Sensitive Strains” value in [17] was 0.38 µg/mL.
Turning to `CNC(CC(C)C)C(=O)NC1C(=O)NC(CC(N)=O)C(=O)NC2C(=O)NC3C(=O)NC(C(=O)NC(C(=O)O)c4cc(O)cc(O)c4-c4cc3ccc4O)C(OC3CC(C)(N)C(O)C(C)O3)c3ccc(c(Cl)c3)Oc3cc2cc(c3OC2OC(CO)C(O)C(O)C2OC2CC(C)(NCc3ccc(OC(C)=O)cc3)C(O)C(C)O2)Oc2ccc(cc2Cl)C1O` (centres unmarked) [Compound 138], the MIC in [1] is not above 0.06 µg/mL; in assay [2], 0.5 µg/mL (≈ 0.287 µM); in [3], not above 0.06 µg/mL; against Entercoccus faecium 276 it was not above 0.06 µg/mL; in assay [18] it was 2 µg/mL (≈ 1.15 µM); in assay [5], not above 0.06 µg/mL. The MIC in assay [6] was not above 0.06 µg/mL; in [7] it was not above 0.06 µg/mL; in assay [8] it was not above 0.0606 µg/mL; in assay [10] it was not above 0.06 µg/mL; against Entercoccus faecium 180, 4 µg/mL (≈ 2.3 µM); with Entercoccus faecium 2041 it was not above 0.06 µg/mL. In addition, the MIC is 2 µg/mL (≈ 1.15 µM) in [12], 4 µg/mL (≈ 2.3 µM) in assay [13], 8 µg/mL (≈ 4.6 µM) in assay [14] and not above 0.06 µg/mL in assay [15]. Further, in [16], the “mean geometric MIC, Vancomycin Resistant Strains” value is 38 µg/mL.
As for `CNC(CC(C)C)C(=O)NC1C(=O)NC(CC(N)=O)C(=O)NC2C(=O)NC3C(=O)NC(C(=O)NC(C(=O)O)c4cc(O)cc(O)c4-c4cc3ccc4O)C(OC3CC(C)(N)C(O)C(C)O3)c3ccc(c(Cl)c3)Oc3cc2cc(c3OC2OC(CO)C(O)C(O)C2OC2CC(C)(NCc3ccc(-c4ccc(OC)c(OC)c4)cc3)C(O)C(C)O2)Oc2ccc(cc2Cl)C1O` (centres unmarked) [Compound 215], the MIC in assay [1] is 2 µg/mL (≈ 1.1 µM); in assay [2] it was 1 µg/mL (≈ 0.55 µM); in assay [3], not above 0.06 µg/mL; with Entercoccus faecium 276, 2 µg/mL (≈ 1.1 µM); in [4] it was 0.5 µg/mL (≈ 0.275 µM); in [18], 0.5 µg/mL (≈ 0.275 µM). Also, the MIC was 2 µg/mL (≈ 1.1 µM) in assay [5]; 0.5 µg/mL (≈ 0.275 µM) in assay [6]; not above 0.06 µg/mL in assay [7]; 0.5 µg/mL (≈ 0.275 µM) in assay [8]; not above 0.06 µg/mL in assay [9]; not above 0.06 µg/mL in assay [10]. For the same compound, the MIC in the assay with Entercoccus faecium 180 is not above 0.06 µg/mL; in assay [13], 2 µg/mL (≈ 1.1 µM); in assay [14], 1 µg/mL (≈ 0.55 µM); in assay [15], not above 0.06 µg/mL. Moreover, the “mean geometric MIC, Vancomycin Resistant Strains” value in [16] is 2.8 µg/mL.
Turning to `C=CCCCCNC1(C)CC(OC2C(Oc3c4cc5cc3Oc3ccc(cc3Cl)C(OC3CC(C)(N)C(O)C(C)O3)C3NC(=O)C(NC(=O)C5NC(=O)C(CC(N)=O)NC(=O)C(NC(=O)C(CC(C)C)NC)C(O)c5ccc(c(Cl)c5)O4)c4ccc(O)c(c4)-c4c(O)cc(O)cc4C(C(=O)O)NC3=O)OC(CO)C(O)C2O)OC(C)C1O` (centres unmarked) [Compound 217], the MIC in assay [1] was not above 0.06 µg/mL; in assay [2], 0.125 µg/mL (≈ 0.0746 µM); in assay [3] it was not above 0.06 µg/mL; in the assay with Entercoccus faecium 276 it was not above 0.06 µg/mL; in [18] it was 1 µg/mL (≈ 0.597 µM); in assay [5], not above 0.06 µg/mL. In addition, the MIC was not above 0.06 µg/mL in assay [6]; not above 0.06 µg/mL in [7]; not above 0.06 µg/mL in assay [8]; not above 0.06 µg/mL in [9]; not above 0.06 µg/mL in [10]; 2 µg/mL (≈ 1.19 µM) against Entercoccus faecium 180. In addition, the MIC against Entercoccus faecium 2041 was not above 0.06 µg/mL; in assay [11], 8 µg/mL (≈ 4.78 µM); in assay [12], 0.5 µg/mL (≈ 0.299 µM); in assay [13], 2 µg/mL (≈ 1.19 µM); in [14], 8 µg/mL (≈ 4.78 µM); in assay [15], not above 0.06 µg/mL. Moreover, the “mean geometric MIC, Vancomycin Resistant Strains” value in assay [16] came out at 13 µg/mL. For the same compound, in assay [17], the “mean geometric MIC, Vancomycin Sensitive Strains” value stood at 0.57 µg/mL.
For the compound `CNC(CC(C)C)C(=O)NC1C(=O)NC(CC(N)=O)C(=O)NC2C(=O)NC3C(=O)NC(C(=O)NC(C(=O)O)c4cc(O)cc(O)c4-c4cc3ccc4O)C(OC3CC(C)(N)C(O)C(C)O3)c3ccc(c(Cl)c3)Oc3cc2cc(c3OC2OC(CO)C(O)C(O)C2OC2CC(C)(NCC3CCC(Cc4ccccc4)CC3)C(O)C(C)O2)Oc2ccc(cc2Cl)C1O` (centres unmarked) [Compound 241], the MIC is 1 µg/mL (≈ 0.562 µM) in assay [2]; not above 0.06 µg/mL in assay [3]; not above 0.06 µg/mL in the assay with Entercoccus faecium 276; 0.5 µg/mL (≈ 0.281 µM) in assay [4]; 1 µg/mL (≈ 0.562 µM) in assay [18]; 0.5 µg/mL (≈ 0.281 µM) in assay [5]. Besides, the MIC in assay [6] is not above 0.06 µg/mL; in assay [7], 1 µg/mL (≈ 0.562 µM); in assay [8] it was 0.5 µg/mL (≈ 0.281 µM); in [9], 1 µg/mL (≈ 0.562 µM); in [10], not above 0.06 µg/mL; in the assay on Entercoccus faecium 180, not above 0.06 µg/mL. The MIC with Entercoccus faecium 2041 is not above 0.06 µg/mL; in assay [11], not above 0.06 µg/mL; in assay [12], 0.5 µg/mL (≈ 0.281 µM); in [13] it was 1 µg/mL (≈ 0.562 µM); in assay [14], 1 µg/mL (≈ 0.562 µM); in assay [15], not above 0.06 µg/mL. The “mean geometric MIC, Vancomycin Resistant Strains” value in [16] was 1.4 µg/mL. The “mean geometric MIC, Vancomycin Sensitive Strains” value in assay [17] is 0.048 µg/mL.

(Values after patent US5840684A, “Glycopeptide antibiotic derivatives” (Eli Lilly and Company, priority 1995, dated 1998).)
